Test results: US9879243B2, “Culture medium for cell growth and transfection” (LIFE TECHNOLOGIES CORPORATION, priority 2001, dated 2018)

Tests used:
CHO cells = assay: Effect of replacement compounds on the growth of CHO cells in CD CHO medium without transferrin, three passages; type: cell-based, Chinese hamster; settings: third passage
Procedure: The ability of replacement compounds to support cellular growth in the absence of transferrin was evaluated using CHO cells maintained in CD CHO medium (Invitrogen Corporation, Carlsbad, Calif., the formulation of which is described in WO 98/08934). Stock cultures containing 5 μg/mL human holo-transferrin were prepared in CD CHO medium. For replacement compound evaluation, CHO cells were established in 125 mL shaker flasks at an initial viable seeding density of 1×10^5 cells/mL in a final volume of 20 mL. All cultures were maintained at 37° C. in humidified air containing 8% CO2. To eliminate transferrin carry-over effects, cells were subcultured at 4 day intervals for a total of three passages. Positive control cultures contained 5 μg/mL human holo-transferrin while negative control cultures were established in the absence of either transferrin or replacement compound. Replacement compound stocks were prepared at 0.1M-0.2M in ddH2O and solubilized when necessary using 5N NaOH or HCl. Iron complexes were established using 0.2M replacement compound and iron stocks mixed 1:1 (v/v) and incubated for 5-10 minutes at 22° C. All solutions containing replacement compounds were filter sterilized using a 0.22 μm Millex-GV filter prior to addition to transferrin and serum-free media.
(§1) Except where noted, replacement compounds were evaluated either alone or in combination with ferric chloride or ferrous sulfate at 25 μM, 50 μM and 100 μM. Values in the table represent the mean percentage of control growth for duplicate cultures determined at the third passage.
The ability of various replacement compounds to substitute for transferrin in the culture of CHO cells was determined. When added to the medium formulation un-complexed, the replacement compound is listed alone, when added as a complex with a transition metal, the source of the transition metal is listed with the metal binding compound.

Sp2/0 cells = assay: Effect of replacement compounds on the growth of Sp2/0 cells in CD Hybridoma medium without transferrin, three passages; type: cell-based; settings: third passage
Procedure: The ability of replacement compounds to support cellular growth in the absence of transferrin was evaluated using Sp2/0 cells maintained in CD Hybridoma medium (Invitrogen Corporation, Carlsbad, Calif.).
Stock cultures containing 5 μg/mL human holo-transferrin were prepared in CD Hybridoma medium. For replacement compound evaluation, Sp2/0 cells were established at an initial viable cell density of 0.5×10^5 cells/mL in stationary culture using 75 cm^2 tissue culture flasks in a final volume of 20 mL. All cultures were maintained at 37° C. in humidified air containing 8% CO2. To eliminate transferrin carry-over effects, cells were subcultured at the same seeding density at 4 day intervals for a total of three passages. Positive control cultures contained 5 μg/mL human holo-transferrin while negative control cultures were established in the absence of either transferrin or replacement compound. Replacement compound stocks were prepared at 0.1M-0.2M in ddH2O and solubilized when necessary using 5N NaOH or HCl. Iron complexes were established using 0.2M replacement compound and iron stocks mixed 1:1 (v/v) and incubated for 5-10 minutes at 22° C. All solutions containing replacement compounds were filter sterilized using a 0.22 μm Millex-GV filter prior to addition to transferrin and serum-free media.
Except where otherwise noted, replacement compounds were evaluated either alone or in combination with ferric chloride or ferrous sulfate at 25 μM, 50 μM and 100 μM. Values in the table represent the mean percentage of control growth for duplicate cultures determined at the third passage.
When added to the medium formulation un-complexed, the replacement compound is listed alone, when added as a complex with a transition metal, the source of the transition metal is listed with the replacement compound.

293 cells = assay: Effect of replacement compounds on the growth of 293 cells in 293 SFM without transferrin, three passages; type: cell-based, human; settings: third passage, control 5 μg/mL human holo-transferrin
Procedure: Semi-confluent adherent cultures of 293 Cells (ATCC, CRL 1573) are readily adapted to suspension culture. The cells are first detached with a solution of Trypsin-EDTA (0.05% Trypsin, 0.53 mM Na4EDTA), and then resuspended in conventional medium supplemented with 10% FBS to inhibit the trypsin. The resuspended cells are centrifuged at 200×g for five minutes.
The initial seeding density of the 293 cells after conversion to suspension culture is 1×10^6 cells/mL. The cells are shaken on a rotary shaker at 150 rpm in a 37° C. incubator equilibrated with 8% CO2-92% air. […] Because 293 cells have a tendency to aggregate, the cells can be vortexed vigorously for approximately 45 seconds to obtain a predominantly single cell suspension at the time of passaging and counting. After several passages in suspension culture, the maximum achievable density can be determined.
For replacement compound evaluation, 293 cells were established in 125 mL shaker flasks at an initial viable seeding density of 2×10^5 cells/mL in a final volume of 20 mL. All cultures were maintained at 37° C. in humidified air containing 8% CO2. To eliminate transferrin carry-over effects, cells were subcultured at 4 day intervals for a total of three passages. At each subculturing, cells were seeded at a density of 2×10^5 cells/mL. Positive control cultures contained 5 μg/mL human holo-transferrin while negative control cultures were established in the absence of either transferrin or replacement compound. Replacement compound stocks were prepared at 0.1M-0.2M in ddH2O and solubilized when necessary using 5N NaOH or HCl. Iron complexes were established using 0.2 M replacement compound and iron stocks mixed 1:1 (v/v) and incubated for 5-10 minutes at 22° C. All solutions containing replacement compounds were filter sterilized using a 0.22 μm Millex-GV filter prior to addition to transferrin and serum-free media.
as §1, with “μM. When used in combination, the replacement compounds were used in equimolar concentration with iron ions.” for “μM.”, “Table 4” for “the table”
When added to the medium formulation uncomplexed, the replacement compound is listed alone, when added as a complex with a transition metal, the source of the transition metal is listed with the replacement compound.

[1] = 25 μM, control 5 μg/mL human holo-transferrin
[2] = 25 μM, iron equimolar where combined

Compound	mean percentage of control growth (CHO cells; [1])	mean percentage of control growth (CHO cells; 50 μM)	mean percentage of control growth (CHO cells; 100 μM)	mean percentage of control growth (Sp2/0 cells; [1])	mean percentage of control growth (Sp2/0 cells; 50 μM)	mean percentage of control growth (Sp2/0 cells; 100 μM)	mean percentage of control growth (293 cells; [2])	mean percentage of control growth (293 cells; 50 μM)	mean percentage of control growth (293 cells; 100 μM)
O=c1cc(CO)occ1O [Kojic Acid]	0 percentage of control growth	0 percentage of control growth	0 percentage of control growth	0 percentage of control growth	0 percentage of control growth	0 percentage of control growth			
Serine Hydroxamate•Ferric Chloride	106 percentage of control growth	121 percentage of control growth	124 percentage of control growth	46 percentage of control growth	66 percentage of control growth	62 percentage of control growth	68 percentage of control growth	65 percentage of control growth	51 percentage of control growth
O=C(O)c1ccccn1.[Cl][Fe]([Cl])[Cl] [2-Pyridinecarboxylic Acid•Ferric Chloride]	88 percentage of control growth	89 percentage of control growth	100 percentage of control growth	0 percentage of control growth	30 percentage of control growth	48 percentage of control growth			
Kojic Acid•Ferric Chloride	89 percentage of control growth	88 percentage of control growth	85 percentage of control growth	0 percentage of control growth	0 percentage of control growth	0 percentage of control growth			
[Cl][Fe]([Cl])[Cl].[O-][n+]1cccc(O)c1 [3-Hydroxypyridine-N-Oxide•Ferric Chloride]	77 percentage of control growth	66 percentage of control growth	101 percentage of control growth	55 percentage of control growth	54 percentage of control growth	57 percentage of control growth	77 percentage of control growth	72 percentage of control growth	81 percentage of control growth
4-Pyridoxic Acid•Ferric Chloride	55 percentage of control growth	63 percentage of control growth	100 percentage of control growth	40 percentage of control growth	73 percentage of control growth	76 percentage of control growth	109 percentage of control growth	85 percentage of control growth	99 percentage of control growth
Cysteine•Ferrous Sulfate	83 percentage of control growth	64 percentage of control growth	45 percentage of control growth	85 percentage of control growth	79 percentage of control growth	67 percentage of control growth			
Sorbitol•Ferric Chloride	100 percentage of control growth	107 percentage of control growth	112 percentage of control growth	94 percentage of control growth	55 percentage of control growth	60 percentage of control growth			
Aspartic Acid•Ferric Chloride	77 percentage of control growth	89 percentage of control growth	112 percentage of control growth				81 percentage of control growth	86 percentage of control growth	100 percentage of control growth
